Laboratory results as given in patent publication US20250235543A1, “MODIFIED PROTEINS AND PROTEIN DEGRADERS” (Cullgen (Shanghai), Inc., priority 2021, published 2025).
Read-outs that look alike come from different tables or passages of the source.

How the values were obtained:
[1] = target: T1, CDK4 (Homo sapiens, UniProt P11802); assay: CDK4 percentage degradation in Calu-1 cells (immunoblotting); type: cell-based; conditions: for inhibition at 0.2 µM: read-out: CDK4 Degradation (200 nM); for inhibition at 10 µM: read-out: CDK4 Degradation (10 μM)
T1 construct: endogenous in cells; host or cells: Calu-1
T1 sequence (P11802 2-303 limits assumed): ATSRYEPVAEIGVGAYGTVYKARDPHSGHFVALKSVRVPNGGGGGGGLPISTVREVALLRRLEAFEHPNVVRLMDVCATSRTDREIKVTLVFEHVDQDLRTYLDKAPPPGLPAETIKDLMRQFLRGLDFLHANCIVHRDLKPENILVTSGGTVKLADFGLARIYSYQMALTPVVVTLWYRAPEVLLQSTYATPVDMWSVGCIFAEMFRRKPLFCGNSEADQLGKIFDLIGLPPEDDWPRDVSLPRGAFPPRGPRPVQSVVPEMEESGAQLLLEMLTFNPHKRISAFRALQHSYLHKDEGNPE
T1 sequence (P24385 whole entry partner): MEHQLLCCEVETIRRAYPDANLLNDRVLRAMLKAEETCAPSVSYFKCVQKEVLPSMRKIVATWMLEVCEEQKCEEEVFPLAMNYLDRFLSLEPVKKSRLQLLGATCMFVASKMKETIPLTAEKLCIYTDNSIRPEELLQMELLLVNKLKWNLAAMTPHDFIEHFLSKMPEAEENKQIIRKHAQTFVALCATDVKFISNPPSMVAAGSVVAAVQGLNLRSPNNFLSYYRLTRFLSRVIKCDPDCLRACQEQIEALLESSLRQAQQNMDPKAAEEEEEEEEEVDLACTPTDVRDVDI
T1 sequence (Q16531 2-1140 limits assumed, further chain): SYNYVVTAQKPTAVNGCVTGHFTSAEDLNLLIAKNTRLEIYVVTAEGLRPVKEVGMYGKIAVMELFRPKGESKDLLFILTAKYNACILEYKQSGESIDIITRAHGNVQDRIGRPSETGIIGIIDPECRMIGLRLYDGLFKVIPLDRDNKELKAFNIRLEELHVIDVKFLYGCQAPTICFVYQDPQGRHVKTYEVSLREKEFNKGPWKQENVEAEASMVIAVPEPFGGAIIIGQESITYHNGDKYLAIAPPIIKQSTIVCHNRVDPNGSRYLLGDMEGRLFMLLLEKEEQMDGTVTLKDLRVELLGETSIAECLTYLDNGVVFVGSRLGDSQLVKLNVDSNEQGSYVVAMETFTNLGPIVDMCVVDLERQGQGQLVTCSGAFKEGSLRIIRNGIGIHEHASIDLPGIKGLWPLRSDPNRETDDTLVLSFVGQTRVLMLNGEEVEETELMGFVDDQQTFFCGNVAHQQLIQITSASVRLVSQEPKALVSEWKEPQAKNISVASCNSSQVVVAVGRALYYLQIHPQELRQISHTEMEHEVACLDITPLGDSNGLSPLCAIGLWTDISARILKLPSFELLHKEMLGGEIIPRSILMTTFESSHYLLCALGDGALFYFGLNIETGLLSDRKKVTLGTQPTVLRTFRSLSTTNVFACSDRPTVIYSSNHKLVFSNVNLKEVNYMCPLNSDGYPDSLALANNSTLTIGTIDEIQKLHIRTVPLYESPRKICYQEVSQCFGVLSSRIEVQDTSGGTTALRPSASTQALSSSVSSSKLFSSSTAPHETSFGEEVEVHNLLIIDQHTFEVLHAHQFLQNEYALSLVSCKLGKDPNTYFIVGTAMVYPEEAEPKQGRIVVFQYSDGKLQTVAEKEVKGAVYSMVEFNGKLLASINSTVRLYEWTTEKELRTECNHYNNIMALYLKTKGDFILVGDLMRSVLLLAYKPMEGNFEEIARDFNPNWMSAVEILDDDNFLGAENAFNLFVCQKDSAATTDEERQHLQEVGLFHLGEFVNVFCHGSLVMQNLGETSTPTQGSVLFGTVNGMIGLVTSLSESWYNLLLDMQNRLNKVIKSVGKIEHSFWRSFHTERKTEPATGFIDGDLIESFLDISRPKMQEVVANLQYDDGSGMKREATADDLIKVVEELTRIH
Outline: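 CDK4 degradation was measured by immunoblotting. Cells were washed in cold PBS and lysed in RIPA buffer with inhibitors for 30 min at 4° C., then spun at 13,000 rpm to clear. After BCA protein determination, lysates were heated at 99° C. for 5 min in Laemmli buffer, resolved on SDS-PAGE, imaged on a ChemiDoc MP with ECL substrate, and band intensities quantified.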

[2] = test system: cyclin D1; assay: Cyclin D1 percentage degradation in Calu-1 cells (immunoblotting); type: cell-based; conditions: 16 hours
Outline: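 Cyclin D1 degradation was assessed by western blot. Clarified lysates, obtained by RIPA lysis with inhibitors and centrifugation at 13,000 rpm, were normalized by BCA protein assay and separated by SDS-PAGE. Bands were detected with Western ECL Substrate on a Bio-Rad ChemiDoc MP Imaging system and quantified in Image Lab software to derive percentage degradation.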

Structure (SMILES)	inhibition at 0.2 µM ([1]; Calu-1, 16 h) [%]	CyclinD1 Degradation (200 nM) [2]	inhibition at 0.2 µM ([1]; Calu-1 cells, 200 nM, 16 hours) [%]	inhibition at 10 µM ([1]; Calu-1 cells, 16 hours) [%]	CyclinD1 Degradation (10 μM) [2]
CC(=O)c1c(C)c2cnc(Nc3ccc(N4CCN(C(=O)CCOCCOCCOCCOCCOCCNc5ccc(C)c(C(=O)Nc6nc(C)c(C)s6)c5)CC4)cn3)nc2n(C2CCCC2)c1=O [CPD-134, 5-((18-(4-(6-((6-Acetyl-8-cyclopentyl-5-methyl-7-oxo-7,8-dihydropyrido[2,3-d]pyrimidin-2-yl)amino)pyridin-3-yl)piperazin-1-yl)-18-oxo-3,6,9,12,15-pentaoxaoctadecyl)amino)-N-(4,5-dimethylthiazol-2-yl)-2-methylbenzamide]	< 30	D (protein percentage degradation <30%)			
CC(=O)c1c(C)c2cnc(Nc3ccc(N4CCN(CC(=O)NCCOCCOCCC(=O)Nc5ccccc5C(=O)Nc5ccc(C)nn5)CC4)cn3)nc2n(C2CCCC2)c1=O [CPD-056, 2-(3-(2-(2-(2-(4-(6-((6-Acetyl-8-cyclopentyl-5-methyl-7-oxo-7,8-dihydropyrido[2,3-d]pyrimidin-2-yl)amino)pyridin-3-yl)piperazin-1-yl)acetamido)ethoxy)ethoxy)propanamido)-N-(6-methylpyridazin-3-yl)benzamide]		A (protein percentage degradation >=80%)	50 to 80		
CC(=O)c1c(C)c2cnc(Nc3ccc(N4CCN(CC(=O)NCCC(=O)Nc5ccccc5C(=O)Nc5nc(C)c(C)s5)CC4)cn3)nc2n(C2CCCC2)c1=O [CPD-146, 2-(3-(2-(4-(6-((6-Acetyl-8-cyclopentyl-5-methyl-7-oxo-7,8-dihydropyrido[2,3-d]pyrimidin-2-yl)amino)pyridin-3-yl)piperazin-1-yl)acetamido)propanamido)-N-(4,5-dimethylthiazol-2-yl)benzamide]	< 30	D (protein percentage degradation <30%)			
CC(=O)c1c(C)c2cnc(Nc3ccc(N4CCN(CC(=O)NCCCCCCCCCNc5ccccc5C(=O)Nc5nc(C)c(C)s5)CC4)cn3)nc2n(C2CCCC2)c1=O [CPD-268, 2-((9-(2-(4-(6-((6-Acetyl-8-cyclopentyl-5-methyl-7-oxo-7,8-dihydropyrido[2,3-d]pyrimidin-2-yl)amino)pyridin-3-yl)piperazin-1-yl)acetamido)nonyl)amino)-N-(4,5-dimethylthiazol-2-yl)benzamide]		A (protein percentage degradation >=80%)	50 to 80		
CC(=O)c1c(C)c2cnc(Nc3ccc(N4CCN(CC(=O)NCCOCCOCCOCCOCCOCCOCCNc5ccc(C)c(C(=O)Nc6nc(C)c(C)s6)c5)CC4)cn3)nc2n(C2CCCC2)c1=O [CPD-132, 5-((1-(4-(6-((6-Acetyl-8-cyclopentyl-5-methyl-7-oxo-7,8-dihydropyrido[2,3-d]pyrimidin-2-yl)amino)pyridin-3-yl)piperazin-1-yl)-2-oxo-6,9,12,15,18,21-hexaoxa-3-azatricosan-23-yl)amino)-N-(4,5-dimethylthiazol-2-yl)-2-methylbenzamide]		A (protein percentage degradation >=80%)	> 80		
CC(=O)c1c(C)c2cnc(Nc3ccc(N4CCN(CC(=O)NCCOCCOCCC(=O)Nc5ccccc5C(=O)Nc5ccc(C)c(C6CC6)n5)CC4)cn3)nc2n(C2CCCC2)c1=O [CPD-270, 2-(3-(2-(2-(2-(4-(6-((6-Acetyl-8-cyclopentyl-5-methyl-7-oxo-7,8-dihydropyrido[2,3-d]pyrimidin-2-yl)amino)pyridin-3-yl)piperazin-1-yl)acetamido)ethoxy)ethoxy)propanamido)-N-(6-cyclopropyl-5-methylpyridin-2-yl)benzamide]		A (protein percentage degradation >=80%)	50 to 80		
CC(=O)c1c(C)c2cnc(Nc3ccc(N4CCN(CC(=O)NCCNc5cccc(C(=O)Nc6nc(C)c(C)s6)c5C)CC4)cn3)nc2n(C2CCCC2)c1=O [CPD-092, 3-((2-(2-(4-(6-((6-Acetyl-8-cyclopentyl-5-methyl-7-oxo-7,8-dihydropyrido[2,3-d]pyrimidin-2-yl)amino)pyridin-3-yl)piperazin-1-yl)acetamido)ethyl)amino)-N-(4,5-dimethylthiazol-2-yl)-2-methylbenzamide]		D (protein percentage degradation <30%)	< 30		
Cc1nc(NC(=O)c2ccccc2NC(=O)CNC(=O)CN2CCN(c3ccc(Nc4ncc(F)c(-c5cc(F)c6nc(C)n(C(C)C)c6c5)n4)nc3)CC2)sc1C [CPD-300, N-(4,5-Dimethylthiazol-2-yl)-2-(2-(2-(4-(6-((5-fluoro-4-(4-fluoro-1-isopropyl-2-methyl-1H-benzo[d]imidazol-6-yl)pyrimidin-2-yl)amino)pyridin-3-yl)piperazin-1-yl)acetamido)acetamido)benzamide]				< 30	D (protein percentage degradation < 30%)
CC(=O)c1c(C)c2cnc(Nc3ccc(N4CCN(CC(=O)NCC(=O)Nc5ccccc5C(=O)Nc5nc(C)c(C)s5)CC4)cn3)nc2n(C2CCCC2)c1=O [CPD-180, 2-(2-(2-(4-(6-((6-Acetyl-8-cyclopentyl-5-methyl-7-oxo-7,8-dihydropyrido[2,3-d]pyrimidin-2-yl)amino)pyridin-3-yl)piperazin-1-yl)acetamido)acetamido)-N-(4,5-dimethylthiazol-2-yl)benzamide]		D (protein percentage degradation <30%)	< 30		
Cc1nc(NC(=O)c2ccccc2NC(=O)CCCCCCNC(=O)CN2CCN(c3ccc(Nc4ncc5cc6n(c5n4)C4(CCCCC4)CNC6=O)nc3)CC2)sc1C [CPD-319, N-(4,5-Dimethylthiazol-2-yl)-2-(7-(2-(4-(6-((6′-oxo-7′,8′-dihydro-6′H-spiro[cyclohexane-1,9′-pyrazino[1′,2′:1,5]pyrrolo[2,3-d]pyrimidin]-2′-yl)amino)pyridin-3-yl)piperazin-1-yl)acetamido)heptanamido)benzamide]				50 to 80	A (protein percentage degradation >= 80%)
CC(=O)c1c(C)c2cnc(Nc3ccc(N4CCN(C(=O)CCOCCOCCOCCOCCOCCOCCNc5cccc(C(=O)Nc6nc(C)c(C)s6)c5C)CC4)cn3)nc2n(C2CCCC2)c1=O [CPD-133, 3-((21-(4-(6-((6-Acetyl-8-cyclopentyl-5-methyl-7-oxo-7,8-dihydropyrido[2,3-d]pyrimidin-2-yl)amino)pyridin-3-yl)piperazin-1-yl)-21-oxo-3,6,9,12,15,18-hexaoxahenicosyl)amino)-N-(4,5-dimethylthiazol-2-yl)-2-methylbenzamide]	50 to 80	A (protein percentage degradation >=80%)			
CC(=O)c1c(C)c2cnc(Nc3ccc(N4CCN(CC(=O)NCCCCNc5cccc(C(=O)Nc6nc(C)c(C)s6)c5C)CC4)cn3)nc2n(C2CCCC2)c1=O [CPD-099, 3-((4-(2-(4-(6-((6-Acetyl-8-cyclopentyl-5-methyl-7-oxo-7,8-dihydropyrido[2,3-d]pyrimidin-2-yl)amino)pyridin-3-yl)piperazin-1-yl)acetamido)butyl)amino)-N-(4,5-dimethylthiazol-2-yl)-2-methylbenzamide]		D (protein percentage degradation <30%)	< 30		
Cc1nc(NC(=O)c2ccccc2NC(=O)CCOCCOCCOCCOCCNC(=O)CN2CCN(c3ccc(Nc4ncc5cc6n(c5n4)C4(CCCCC4)CNC6=O)nc3)CC2)sc1C [CPD-325, N-(4,5-Dimethylthiazol-2-yl)-2-(2-oxo-1-(4-(6-((6′-oxo-7′,8′-dihydro-6′H-spiro[cyclohexane-1,9′-pyrazino[1′,2′:1,5]pyrrolo[2,3-d]pyrimidin]-2′-yl)amino)pyridin-3-yl)piperazin-1-yl)-6,9,12,15-tetraoxa-3-azaoctadecan-18-amido)benzamide]				50 to 80	A (protein percentage degradation >= 80%)
CC(=O)c1c(C)c2cnc(Nc3ccc(N4CCN(CC(=O)NCCOCCOCCC(=O)Nc5ccccc5C(=O)Nc5ccn(C)n5)CC4)cn3)nc2n(C2CCCC2)c1=O [CPD-068, 2-(3-(2-(2-(2-(4-(6-((6-Acetyl-8-cyclopentyl-5-methyl-7-oxo-7,8-dihydropyrido[2,3-d]pyrimidin-2-yl)amino)pyridin-3-yl)piperazin-1-yl)acetamido)ethoxy)ethoxy)propanamido)-N-(1-methyl-1H-pyrazol-3-yl)benzamide]		A (protein percentage degradation >=80%)	50 to 80		
CC(=O)c1c(C)c2cnc(Nc3ccc(N4CCN(CC(=O)NCCCCCCCNC(=O)c5ccc(C(=O)Nc6ncc(C)s6)c(C)c5)CC4)cn3)nc2n(C2CCCC2)c1=O [CPD-048, N^4-(7-(2-(4-(6-((6-Acetyl-8-cyclopentyl-5-methyl-7-oxo-7,8-dihydropyrido[2,3-d]pyrimidin-2-yl)amino)pyridin-3-yl)piperazin-1-yl)acetamido)heptyl)-2-methyl-N^1-(5-methylthiazol-2-yl)terephthalamide]		D (protein percentage degradation <30%)	< 30		
CC(=O)c1c(C)c2cnc(Nc3ccc(N4CCN(CC(=O)NCCCCCNc5ccc(C)c(C(=O)Nc6nc(C)c(C)s6)c5)CC4)cn3)nc2n(C2CCCC2)c1=O [CPD-116, 5-((5-(2-(4-(6-((6-Acetyl-8-cyclopentyl-5-methyl-7-oxo-7,8-dihydropyrido[2,3-d]pyrimidin-2-yl)amino)pyridin-3-yl)piperazin-1-yl)acetamido)pentyl)amino)-N-(4,5-dimethylthiazol-2-yl)-2-methylbenzamide]		D (protein percentage degradation <30%)	< 30		
